Data as given in publication PMC11078216, “Discovery of potent and selective activity-based probes (ABPs) for the deubiquitinating enzyme USP30” (RSC Chemical Biology, 2024).
Blank lines part the entries; values can stand above or below the compound they belong to.

Target: T1, RTN3 (Homo sapiens, UniProt O95197)
T1 construct: endogenous in cells; host or cells: HEK293T
T1 sequence (O95197 1-1032): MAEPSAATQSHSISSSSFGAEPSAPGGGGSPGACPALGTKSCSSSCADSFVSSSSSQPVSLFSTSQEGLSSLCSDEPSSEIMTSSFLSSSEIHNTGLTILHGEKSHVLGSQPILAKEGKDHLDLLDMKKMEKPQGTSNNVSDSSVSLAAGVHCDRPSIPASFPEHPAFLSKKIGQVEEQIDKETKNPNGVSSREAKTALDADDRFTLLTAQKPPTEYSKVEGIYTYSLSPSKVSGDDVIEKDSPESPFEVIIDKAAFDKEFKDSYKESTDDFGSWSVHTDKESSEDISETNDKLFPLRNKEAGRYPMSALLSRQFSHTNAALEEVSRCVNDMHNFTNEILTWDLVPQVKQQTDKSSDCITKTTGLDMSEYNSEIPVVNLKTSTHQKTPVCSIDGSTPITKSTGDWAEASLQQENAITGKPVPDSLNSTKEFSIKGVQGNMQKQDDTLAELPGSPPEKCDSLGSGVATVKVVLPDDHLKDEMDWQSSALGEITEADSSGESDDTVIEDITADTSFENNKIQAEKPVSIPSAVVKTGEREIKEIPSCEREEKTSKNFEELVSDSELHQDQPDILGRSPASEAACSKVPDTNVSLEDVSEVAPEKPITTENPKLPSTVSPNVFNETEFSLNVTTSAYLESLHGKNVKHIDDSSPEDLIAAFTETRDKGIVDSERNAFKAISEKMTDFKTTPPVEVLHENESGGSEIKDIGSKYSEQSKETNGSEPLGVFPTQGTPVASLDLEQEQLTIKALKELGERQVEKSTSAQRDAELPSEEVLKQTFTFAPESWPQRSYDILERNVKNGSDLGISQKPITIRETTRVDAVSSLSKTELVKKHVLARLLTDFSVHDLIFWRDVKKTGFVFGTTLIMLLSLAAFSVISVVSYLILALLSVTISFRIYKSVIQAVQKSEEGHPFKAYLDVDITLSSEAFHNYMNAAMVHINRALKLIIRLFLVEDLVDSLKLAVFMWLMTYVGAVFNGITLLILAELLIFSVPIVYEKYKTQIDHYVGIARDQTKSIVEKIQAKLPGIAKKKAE
Assay: ABPP chemical proteomics (LC-MS/MS) in HEK293T cells
Assay type: cell-based
Procedure: To explore the selectivity of IMP-2587 and IMP-2586 across the whole proteome, we performed quantitative activity-based protein profiling (ABPP) in HEK293T cells following treatment with IMP-2587 or IMP-2586 (Fig. 3a). After ABP incubation, cells were lysed, and probe-labelled proteins were ligated to biotinylated capture reagents.[27] […] USP30 was outcompeted by corresponding parent inhibitors for each ABP (Fig. 5b and d and Tables S3 and S5, ESI ^†), confirming the high potency and rapid engagement of IMP-2587 and IMP-2586 in cells. […] DESI1 and DESI2 are small ubiquitin-related modifier (SUMO) proteases,[3,29–32] and IMP-2587 and IMP-2586 may offer a starting point for future development of DESI ABPs. […]
d) Live cell probe incubation, lysate click chemistry and precipitation 6-well HEK293T cells were incubated with media containing compounds ABP 2 and ABP 4 at indicated concentrations for 1 h at 37 °C. The cells were washed with PBS and lysed with lysis buffer (50 μL (1% (v/v) Triton X-100, 0.1% (w/v) sodium dodecyl sulfate (SDS), EDTA-free complete protease inhibitor cocktail (1×, Roche) in PBS on ice for 10 min. The lysates were scraped and transferred to corresponding Lo-Bind Eppendorfs. Each lysate was sonicated for 1 minute, and the samples centrifuges at 5,000 x g at 4 °C for 5 minutes to pellet insoluble cellular debris. The supernatant was collected, and protein concentration was determined using the DC Protein Assay (Bio-Rad) as per manufacturer’s instructions, and normalised to lowest concentrated sample (e.g. 1 mg/mL, using lysis buffer). The following “click mixture” was prepared separately, preparing 6 μL for every 100 μL of […]
Capture reagent (AzRB/AzT for ABP 2, YnT/YnB for ABP 4 10 mM in DMSO, 1 vol; final concentration […]
CuSO4 (50 mM in water, 2 vol; final concentration in reaction 1 mM)
TCEP (50 mM in water, 2 vol; final concentration in reaction 1 mM)
TBTA (10 mM in DMSO, 1 vol; final concentration in reaction 100 µM)
The click mixture was vortexed and incubated at room temperature for 2 min before 6 μL of the mixture was added to every 100 μL of lysate. The reaction mixtures were shaken at room temperature for 1 h before being quenched with EDTA (500 mM in H2O) to a final concentration of 10 mM.
Proteins were precipitated by adding H2O (1 vol), MeOH (2 vol) and CHCl3 (0.5 vol), vortexing briefly then centrifuging at 17,000 × g for 5 min. The top H2O/MeOH layer was discarded and the middle layer of protein pellet and lower CHCl3 layer retained. The suspension was washed with MeOH (300 μL), and sonicated to break up the pellet. The proteins were pelleted by centrifugation at 10,000–17000 × g for 5–10 min or until a compact pellet was formed. The protein pellet was washed once more with MeOH (1 mL). The pellet was resuspended by sonicating and completely dissolving in 1% (w/v) SDS in PBS (to 5 mg/mL protein) before being made up to 1 mg/mL protein with PBS. […]
f) Neutravidin biotin enrichment (Affinity pull-down)
Click chemistry and precipitation steps were carried out as described in section 3.2.d, on at least 400ug of protein per sample. The pellet was resuspended by sonicating and completely dissolving in 1% (w/v) SDS in HEPES 50 mM pH 8.0, before being made up to 1 mg/mL protein with HEPES 50 mM pH 8.0 to […]
achieve a final concentration of 0.2% SDS. 20uL of each samples was collected as TL (Total lysate) samples. Pull down of biotinylated proteins was achieved by incubating samples with pre-equilibrated (3x 1 mL washes with 0.2% (w/v) SDS in HEPES 50 mM pH 8 buffer) Pierce™ NeutrAvidin™ Agarose beads for 3 hours at room temperature. NeutrAvidin™ Agarose beads were used in ratio of 1 μL bead resin per 10ug of protein sample. The beads were subsequently washed by moderate shaking for 10 seconds then briefly pelleting by table-top centrifuge then vacuum aspirating the supernatant with fine-end pipette tips (to not disturb the agarose) after collecting 20 µL supernatant as SN (supernatant […]
) samples. […]

SMILES: N#CN1CC[C@@H](NC(=O)c2cc(-c3ccccc3Oc3ccc(N=[N+]=[N-])cc3)n[nH]2)C1 [IMP-2586]
Difference (log2 fold change of enrichment) (IMP-2586 labelling vs DMSO, 30 nM, 10 min, HEK293T (Table S4, Fig.5c)): 0.91

SMILES: C#Cc1cccc(-c2cc(NC(=O)CC3CCN(C#N)C3)on2)c1 (stereo not shown) [IMP-2587]
Difference (log2 fold change of enrichment) (IMP-2587 labelling vs DMSO, 30 nM, 10 min, HEK293T (Table S2, Fig.5a)): 1.07

Difference (log2 fold change of enrichment) (compound 1 out-competition with IMP-2587 labelling, HEK293T (Table S3, Fig.5b)): -0.64
SMILES: N#CN1CC[C@H](CC(=O)Nc2cc(-c3cccc(Cl)c3)no2)C1 [compound 1, reference compound]

Difference (log2 fold change of enrichment) (compound 3 out-competition with IMP-2586 labelling, HEK293T (Table S5, Fig.5d)): -0.42
SMILES: N#CN1CC[C@@H](NC(=O)c2cc(-c3ccccc3Oc3ccccc3)n[nH]2)C1 [compound 3, reference compound]
